# From PMC11417994, “Cyclohexanediamine Triazole (CHDT) Functionalization Enables Labeling of Target Molecules with Al^18F/^68Ga/^111In” (Bioconjugate Chemistry, 2024)
# Where “and” joins values, the source holds several entries; their conditions need not be identical. Identical values can stand only once.
# Experiments:
# PSMA [1] = molecular target: T1, PSMA (Homo sapiens, UniProt Q04609); test: Saturation binding (surface-bound and internalized), intact LNCaP cells as monolayer
# T1 construct: Detection of endogenous PSMA expression in LNCaP and PC3 cells relative to β-actin expression by Western; host or cells: LNCaP human prostate carcinoma cells (monolayer, spheroids or Potter-Elvehjem homogenates)
# Description: (§1) In addition to assessing the binding affinities for nonlabeled CHDT-PSMA-1/2/3, we sought to characterize the saturation binding of the Al^18F-, ^68Ga-, and ^111In-labeled compounds using LNCaP cells cultured in monolayers and as spheroids. The saturation binding curves for Al[^18F]F-CHDT-PSMA-1/2/3 are depicted in Figure 3, while the graphs for [^18F]PSMA-1007 and ^68Ga- and ^111In-labeled CHDT-PSMA-1/2/3 can be found in Figures S7–S9 in the Supporting Information. The binding parameters (Kd and Bmax) for Al[^18F]F-CHDT-PSMA-1/2/3 and [^18F]PSMA-1007 are summarized in Table 3 (for the ^68Ga- and ^111In-labeled compounds see Tables S4 and S5 in the Supporting Information). For the saturation binding assays, we recorded surface-bound radioligand (named “binding”), which refers to bound radioligand that can be removed by acid wash, and internalized or acid-resistant radioligand (named “internalization”), which refers to radioligand that remains cell-bound after acid wash. Consequently, two saturation binding plots were obtained and two sets of binding parameters (Kd/Bmax and Kd,int/Bmax,int) were derived.
# (§2) For saturation assays in well plates, monolayers of LNCaP (sowing 5 × 10^4 cells/well in 48-well plates 2 days before the assay), as well as LNCaP spheroids were incubated with radiolabeled CHDT-PSMA-1/2/3 and PSMA-1007 (0.2 nM to 100 nM) with adjacent samples receiving KuE (0.8 mM) at 37 °C for 2 h. The number of experiments can be derived from the data in the Tables S4, S5, and S7 in the Supporting Information. After removing the incubation medium and washing of cells with ice-cold PBS (containing Mg^2+ and Ca^2+) the surface-bound activity was stripped with 4 °C cold acid-wash buffer (0.2 M glycine, 0.15 M NaCl, pH 3.0) for 10 min. The acid wash buffer was transferred from the wells to measuring tubes, as was the PBS buffer after washing once. Cytosolic activity (internalized radioligand) was determined after treatment with cell lysis buffer (1% SDS in 0.1 M NaOH) at 37 °C for 30 min. Cell surface and cytosolic activity were measured separately in a gamma counter. Time-depending internalization assays were performed only with cells in monolayer. The incubation (radioligand concentration 13 nM) for these assays was terminated after 10 min, 1 and 3 h, with ^111In and ^177Lu additionally after 24 and 48 h at 37 °C, respectively. During the internalization assays adjacent samples received KuE (0.8 mM) for PSMA blocking, methyl-β-cyclodextrin (MβCD; 3 mM) or KuE together with MβCD, 1 h before radioligand application. The number of experiments can be derived from the data of Figure S11 and associated table and from Table S8 in the Supporting Information.
# (§3) Dissociations constants (Kd and Kd,int), as well as maximal binding capacities (Bmax and Bmax,int), were derived from specific binding data by nonlinear regression according to the model of “One site-specific binding” as implemented in GraphPad Prism 10. Protein content was determined using the bicinchoninic acid protein assay kit (Pierce, Thermo Scientific) to calculate the binding capacities in pmol/mg and for the time-depending internalization the internalized percent of administrated dose per μg protein (% AD/μg protein).
# [2] = Serum stability assay in human serum (radio-TLC/radio-HPLC); type: in vitro ADME; conditions: 37 °C, radio-TLC; for Percentage of intact radioligand after 3 h in human serum: Table 1 mean ± SEM, Table S1 individual values
# Experimental: To investigate the serum stability of the radiolabeled CHDTA-PSMA-1/2/3, human serum (frozen, from male AB clotted whole blood; Sigma-Aldrich/Merck) was centrifuged for 5 min at 20,000g at 4 °C after thawing. The supernatant was sterile filtrated (filter pore 0.2 μm). Four parts serum and one part of radioligand were incubated at 37 °C with shaking. Aliquots were taken after 3 h and for the ^111In-labeled compounds also after 24 and 48 h, and residual intact radiolabeled compound was determined by radio-TLC and/or radio-HPLC. For analysis by radio-HPLC, the aliquots were mixed with Supersol (mixture for protein precipitation that consists of 20% ethanol, 0.5% Triton X-100, 5 mM EDTA and 0.1% saponin)[72] and kept on ice for 5 min. After centrifugation for 5 min at 20,000g at 4 °C, the supernatant was used for radio-HPLC analysis.
# [3] = n-Octanol/PBS distribution coefficient (logD7.4); type: physicochemical; conditions: Table S1 individual values
# Experimental: The log D7.4 values were determined as follows: 500 μL of n-octanol and 450 μL of PBS (pH 7.4) were premixed prior to the addition of 50 μL of the respective radiolabeled compound. The mixture was vigorously stirred for 30 min at 22 °C, and thereafter centrifuged for 5 min at 7,500g at 22 °C. Aliquots of the n-octanol and the aqueous phases were transferred to measuring tubes, and the activity counts in both phases were measured in a gamma counter (Hidex Deutschland Vertrieb GmbH, Germany). The logarithm of the quotient of the activity counts from the n-octanol and the aqueous phase was calculated, which is equal to the log D7.4 value.
# PSMA [4] = molecular target: T1, PSMA; test: Saturation binding (surface-bound and internalized), LNCaP spheroids
# Description: as §1
# For the formation of spheroids, the LNCaP cells were incubated overnight in a normal culture bottle with biocompatible nanoparticles ([…] with 80 μL of a suspension consisting of Au, Fe2O3 and poly-L-lysine called Nanoshuttle, Greiner Bio-One GmbH, Germany). After harvesting and cell counting, 10,000 cells/well of a 24-well plate or 7,000 cells/well of a 96-well plate (cell-repellent plates) were sown. The well plates were placed on matching plates with button magnets (Greiner Bio-One GmbH, Germany). The magnetized LNCaP cells formed suitable spheroids that were used after 5 d.
# as §2, §3
# PSMA [5] = molecular target: T1, PSMA; test: Competition binding assay, LNCaP cell homogenates, radioligand [177Lu]Lu-PSMA-617; conditions: nonlabeled compounds; [177Lu]Lu-PSMA-617 12 nM; 37 °C, 60 min; Table 2 mean (SEM), Table S3 individual experiments and mean
# Experimental: The binding affinity of the nonlabeled CHDT-PSMA-1/2/3, PSMA-1007, PSMA-617, and KuE was assessed in competition binding assays using LNCaP cell homogenates (∼1 × 10^6 cells/mL using Potter-Elvehjem) and the radioligand [^177Lu]Lu-PSMA-617 (n = 5 for CHDT-PSMA-1; n = 4 for CHDT-PSMA-2/3; n = 2 for PSMA-1007; n = 8 for PSMA-617; n = 6 for KuE). […] The assays were performed in a final volume of 200 μL. The incubation was stopped by washing the homogenate with cold PBS four times using a filter (Whatman GF/C, 90 min presoaked in 0.3% polyethylenimine) in a cell harvester (Brandel, USA). The radioactivity bound to the filter was measured in a gamma counter. Filter binding was determined for adjacent samples without cell homogenate. The experiments were performed two to four times in triplicates or quadruplicates. Inhibitory constants (Ki) were derived from nonlinear regression according to the model of “One site – Fit Ki” as implemented in GraphPad Prism 10. The Kd value of [^177Lu]Lu-PSMA-617 was determined in saturation binding assays using LNCaP cell homogenates to be 15.2 (±2.1) nM.
# [6] = same conditions; cited from earlier work
# PSMA [7] = molecular target: PSMA; set-up: method as in PMID 22369515; conditions: cited from earlier work
# [8] = Al^18F-labeled conjugate or [18F]PSMA-1007, acid-resistant fraction, read-out: Kd,int (internalization)
# [9] = Al^18F-labeled conjugate or [18F]PSMA-1007, surface-bound
# [10] = Al^18F-labeled conjugate or [18F]PSMA-1007, surface-bound, 37 °C, 2 h, read-out: Kd (binding)
# [11] = pH 7.4, radiolabel Al^18F, Table 1 mean ± SEM of three experiments
# [12] = pH 7.4, radiolabel ^68Ga, Table 1 mean ± SEM
# [13] = pH 7.4, radiolabel ^111In, Table 1 mean ± SEM
# [14] = Al^18F-labeled conjugate or [18F]PSMA-1007, surface-bound, read-out: Kd (binding)
# [15] = [111In]In-labeled conjugate, surface-bound
# T1 sequence (Q04609 whole entry): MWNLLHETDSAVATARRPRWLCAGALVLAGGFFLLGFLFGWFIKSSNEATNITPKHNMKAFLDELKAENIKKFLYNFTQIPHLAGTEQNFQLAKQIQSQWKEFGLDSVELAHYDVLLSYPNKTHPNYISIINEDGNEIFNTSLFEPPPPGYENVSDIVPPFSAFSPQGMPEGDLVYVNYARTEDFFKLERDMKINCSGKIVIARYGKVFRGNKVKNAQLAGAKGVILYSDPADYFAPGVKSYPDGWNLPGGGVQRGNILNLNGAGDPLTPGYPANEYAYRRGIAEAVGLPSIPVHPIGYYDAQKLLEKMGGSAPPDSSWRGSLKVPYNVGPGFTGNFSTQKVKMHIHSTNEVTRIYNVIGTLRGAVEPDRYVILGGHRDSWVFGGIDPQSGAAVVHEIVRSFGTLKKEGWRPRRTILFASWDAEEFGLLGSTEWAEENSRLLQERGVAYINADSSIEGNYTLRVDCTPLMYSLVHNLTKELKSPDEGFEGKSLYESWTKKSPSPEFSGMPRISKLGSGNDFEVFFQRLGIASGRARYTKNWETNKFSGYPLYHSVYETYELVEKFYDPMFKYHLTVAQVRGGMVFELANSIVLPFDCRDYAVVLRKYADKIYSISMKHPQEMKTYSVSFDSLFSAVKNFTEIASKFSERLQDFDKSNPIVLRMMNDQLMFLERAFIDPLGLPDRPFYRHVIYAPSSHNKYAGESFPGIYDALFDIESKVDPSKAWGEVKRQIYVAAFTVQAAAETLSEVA
Kd (PSMA [1]; [8]) [nM],Bmax (binding) (PSMA [1]; [9]) [pmol/mg],Kd (PSMA [1]; [10]) [nM],Percentage of intact radioligand after 3 h in human serum ([2]; radiolabel Al^18F),Percentage of intact radioligand in human serum after 24 h (*) ([2]; radiolabel ^111In),"logD [3, 11]","logD [3, 12]","logD [3, 13]",Kd (PSMA [4]; [8]) [nM],Kd (PSMA [4]; [14]) [nM],Ki (PSMA [5]),SMILES,Percentage of intact radioligand after 3 h in human serum ([2]; radiolabel ^68Ga),"Percentage of intact radioligand after 3 h in human serum ([2]; radiolabel ^111In, 3 h)",Percentage of intact radioligand in human serum after 48 h (**) ([2]; radiolabel ^111In),"Bmax,int (internalization) (PSMA [4]; [111In]In-labeled conjugate)",64Cu-transchelation in human serum [6],also measured
14.4 ± 7.3,2.18 ± 0.97,19.7 ± 8.4,99.2% and 99.6% and 99.3 ± 0.1%,98.9% and 99.6% and 99.1 ± 0.2%,-3.43,-3.09,-3.87,36.4 ± 14.6,38.6 ± 25.8,7.65 nM and 3.21 nM and 9.15 nM and 12.6 nM and 8.1 nM,O=C(O)CCC(NC(=O)NC(CCCCNC(=O)[C@H](Cc1ccc2ccccc2c1)NC(=O)[C@H]1CC[C@H](CNC(=O)CCCCn2cc(CN(CC(=O)O)[C@@H]3CCCC[C@H]3N(CC(=O)O)CC(=O)O)nn2)CC1)C(=O)O)C(=O)O (mixture of isomers) [CHDT-PSMA-3],98.6% and 99.6% and 99.3% and 99.1 ± 0.4%,99.5% and 98.8% and 99.2% and 99.2 ± 0.2%,99.9% and 99.5% and 98.7% and 99.4 ± 0.4%,0.31 pmol/mg and 0.33 pmol/mg and 0.32 pmol/mg,–,"Bmax,int (internalization) (PSMA [1]; [111In]In-labeled conjugate): 0.65 pmol/mg and 0.49 pmol/mg and 0.57 pmol/mg; Bmax (binding) (PSMA [1]; [15]): 0.50 pmol/mg and 0.91 pmol/mg and 0.70 pmol/mg; Bmax,int (internalization) (PSMA [4]; [68Ga]Ga-labeled conjugate, only one assay): 0.75 pmol/mg; Bmax (binding) (PSMA [4]; [15]): 0.21 pmol/mg and 0.40 pmol/mg and 0.30 pmol/mg"
–,–,–,–,–,–,–,–,–,–,–,O=C(O)CN1CCN(CC(=O)O)CCN(CC(=O)O)CCN(CC(=O)O)CC1 [DOTA],–,–,–,–,only minimal,–
–,–,–,–,–,–,–,–,–,–,–,O=C(O)CN1CCN(CC(=O)O)CCN(CC(=O)O)CC1 [NOTA],–,–,–,–,only minimal,–
–,–,–,–,–,–,–,–,–,–,–,O=C(O)CCc1ccc(O)c(CN(CCN(CC(=O)O)Cc2cc(CCC(=O)NCCCCCC(=O)NCCCC[C@H](NC(=O)N[C@@H](CCC(=O)O)C(=O)O)C(=O)O)ccc2O)CC(=O)O)c1 [PSMA-11],–,–,–,–,–,Ki (PSMA [7]): 12 nM
–,–,–,–,–,–,–,–,–,–,–,O=C(O)CN1CCCN(CC(=O)O)CCN(CC(=O)O)CCCN(CC(=O)O)CC1 [TETA],–,–,–,–,only minimal,–
–,–,–,–,–,–,–,–,–,–,–,NC12CNCCNCC(N)(CNCCNC1)CNCCNC2 [diamSar],–,–,–,–,only minimal,–

SMILES,Kd (PSMA [1]; [8]) [nM],Bmax (binding) (PSMA [1]; [9]) [pmol/mg],Kd (PSMA [1]; [10]) [nM],Percentage of intact radioligand after 3 h in human serum ([2]; radiolabel Al^18F),Percentage of intact radioligand in human serum after 24 h (*) ([2]; radiolabel ^111In),"logD [3, 11]","logD [3, 12]","logD [3, 13]",Kd (PSMA [4]; [8]) [nM],Kd (PSMA [4]; [14]) [nM],Ki (PSMA [5]),Percentage of intact radioligand after 3 h in human serum ([2]; radiolabel ^68Ga),"Percentage of intact radioligand after 3 h in human serum ([2]; radiolabel ^111In, 3 h)",Percentage of intact radioligand in human serum after 48 h (**) ([2]; radiolabel ^111In),"Bmax,int (internalization) (PSMA [4]; [111In]In-labeled conjugate)",64Cu-transchelation in human serum [6],also measured
O=C(O)CCC(NC(=O)NC(CCCCNC(=O)Cn1cc(CN(CC(=O)O)[C@@H]2CCCC[C@H]2N(CC(=O)O)CC(=O)O)nn1)C(=O)O)C(=O)O (mixture of isomers) [CHDT-PSMA-1],18.4 ± 7.3,1.87 ± 0.57,26.4 ± 11,98.9% and 99.0% and 98.8% and 98.9 ± 0.1%,99.8% and 99.5% and 99.6 ± 0.1%,-3.6,-3.36,-4.23,37.4 ± 10.7,41.5 ± 26.4,85.5 nM and 120 nM and 86.9 nM and 152 nM and 132 nM and 115 nM,98.8% and 94.4% and 96.6 ± 2.2 %,99.7% and 99.3% and 99.4% and 99.5 ± 0.1%,99.7% and 99.3% and 98.9% and 99.3 ± 0.2%,0.03 pmol/mg and 0.06 pmol/mg and 0.04 pmol/mg,–,Bmax (binding) (PSMA [4]; [9]): 1.49 ± 0.36 pmol/mg
O=C(O)CCC(NC(=O)NC(CCCCNC(=O)[C@@H](Cc1cccc2ccccc12)NC(=O)CCCCCn1cc(CN(CC(=O)O)[C@@H]2CCCC[C@H]2N(CC(=O)O)CC(=O)O)nn1)C(=O)O)C(=O)O (mixture of isomers) [CHDT-PSMA-2],14.4 ± 4.8,1.33 ± 0.10,12.9 ± 4,99.3% and 98.7% and 99.1 ± 0.2%,98.9% and 98.8% and 97.6% and 98.4 ± 0.4%,-3.34,-3.11,-3.44,15.7 ± 0.8,15.8 ± 4.4,48.1 nM and 71.2 nM and 40.5 nM and 34.5 nM and 49 nM,97.7% and 97.4% and 97.0% and 97.6 ± 0.1%,99.6% and 98.3% and 98.6% and 98.8 ± 0.4%,99.9% and 98.5% and 97.6% and 98.7 ± 0.7%,0.20 pmol/mg and 0.10 pmol/mg and 0.15 pmol/mg,–,"Bmax,int (internalization) (PSMA [1]; [111In]In-labeled conjugate): 0.25 pmol/mg and 0.17 pmol/mg and 0.21 pmol/mg; Bmax (binding) (PSMA [4]; [9]): 1.07 ± 0.13 pmol/mg; Bmax (binding) (PSMA [4]; [15]): 0.15 pmol/mg and 0.25 pmol/mg and 0.20 pmol/mg"
